# Measured values: publication PMC6264295, “Studies on Log Po/w of Quinoxaline di-N-Oxides: A Comparison of RP-HPLC Experimental and Predictive Approaches” (Molecules, 2011)
# Experiments:
# [1] = RP-HPLC determination of capacity factors and log Po/w (Supelcosil LC-ABZ, MOPS buffer pH 7.4/methanol); settings: for Capacity factors log k’40: 40% methanol; for Capacity factors log k’40 / Capacity factors log k’50 / Capacity factors log k’60 / Capacity factors log k’70: MOPS buffer pH 7.4; for Capacity factors log k’50: 50% methanol; for Capacity factors log k’60: 60% methanol; for Capacity factors log k’70: 70% methanol; for Capacity factors log k’0: extrapolated to 0% methanol; for chromatographic logP: pH 7.4, RP-HPLC log Po/w; for log k’0: capacity factor extrapolated to 0% methanol; for RP-HPLC log Po/w: from log k’0 by Equation (1)
# Procedure: The RP-HPLC methods of Minick and Lombardo [53] were considered for estimating the n-octanol/water partition coefficients (log Po/w) of QdO. The inorganic salts and the reference compounds were, at least, of analytical grade (Sigma Aldrich and Fluka) and used without further purification. HPLC-grade methanol, n-octanol (Sigma-Aldrich) and bi-distilled water were used to prepare the mobile phase.
# The other chromatographic conditions were: flow 1.0 mL/min^−1; isocratic elution, UV-visible detector set at the wavelength with maximum absorbance (260 and 210 nm). The test solutions were 0.3 mM in the desired compound. All the experiments were performed at 25 ± 2 °C at least twice.
# The capacity factors were calculated according to Equation (2): […]
# In order to judge if the experimentally measured log k’0 can be used to predict the log Po/w value, a calibration curve was created with the capacity factors of the reference compounds and a linear regression equation between the log Po/w and log k’0 was determined.
# The robustness of the model and its predictivity were evaluated by the leave-one-out (LOO) cross-validation procedure. According to this procedure, the log Po/w value of each compound in the reference data set is predicted by the equations derived from all the other compounds except the predicted one. At the end of this procedure two values are available for each reference compound, the reference shake-flask log Po/w value (yi) and the predicted one (ŷi). […] The regression coefficient (R^2LOO) is defined by Equation (5): [drawing 8] (5) where [drawing 9] is the mean of the reference shake-flask log Po/w value and n is the number of reference compounds. A high value of R^2LOO indicates a good predictive ability of the model. The root mean squared error in prediction (RMSELOO) is calculated with Equation (6): [drawing 10] (6)
# [2] = set-up: method as in earlier work; settings: reduction peak potential; cited from earlier work
# [3] = reference compounds; reference values; ref OECD Guidelines [39]; cited from earlier work
# [4] = reference compounds, leave-one-out cross-validation
Compound,Capacity factors log k’40 [1],Capacity factors log k’50 [1],Capacity factors log k’60 [1],Capacity factors log k’70 [1],Capacity factors log k’0 ([1]; pH 7.4),chromatographic logP [1],"Epc,1 [2]","log k’0 ([1]; reference compounds, pH 7.4)",RP-HPLC log Po/w ([1]; reference compounds),"LOO-predicted RP-HPLC log Po/w [1, 4]",log Po/w [3],LOO-predicted RP-HPLC log Po/w ([1]; pH 7.4)
Cc1c(C(=O)NCc2ccccc2)[n+]([O-])c2cc(Cl)ccc2[n+]1[O-] [Compound 12],0.65,0.30,−0.05,−0.36,1.98,2.25,−1.482,,,,,
Cc1ccc2c(c1)[n+]([O-])c(C(=O)NCc1ccc(Br)cc1)c(C)[n+]2[O-] [Compound 19],0.94,0.60,0.21,−0.16,2.43,2.69,−1.580,,,,,
"Brc1ccccc1 [Compound 7, Bromobenzene, reference compound]",,,,,,,,2.84,,,,
Cc1c(C(=O)NCCc2ccccc2)[n+]([O-])c2cc(Cl)c(Cl)cc2[n+]1[O-] [Compound 17],1.07,0.74,0.34,−0.06,2.60,2.87,−1.387,,,,,
"CCC(C)=O [Compound 1, 2-Butanone, reference compound]",,,,,,,,−0.06,0.21,0.15,0.3,
Cc1ccc(CNC(=O)c2c(C)[n+]([O-])c3ccccc3[n+]2[O-])cc1 [Compound 22],0.62,0.25,−0.10,−0.44,2.02,2.29,−1.580,,,,,
"Nc1ccccc1 [Compound 2, Aniline, reference compound]",,,,,,,,0.67,0.94,0.96,,
Cc1c(C(=O)NCCc2ccccc2)[n+]([O-])c2cc(Cl)ccc2[n+]1[O-] [Compound 16],0.69,0.36,0.00,−0.37,2.11,2.38,−1.525,,,,,
Cc1ccc2c(c1)[n+]([O-])c(C(=O)NCCc1ccccc1)c(C)[n+]2[O-] [Compound 15],0.47,0.21,−0.13,−0.45,1.73,2,−1.649,,,,,
Cc1c(C(=O)NCc2ccccc2)[n+]([O-])c2cc(Cl)c(Cl)cc2[n+]1[O-] [Compound 13],0.98,0.66,0.27,−0.11,2.46,2.72,−1.211,,,,,
Cc1c(C(=O)NCC(c2ccccc2)c2ccccc2)[n+]([O-])c2cc(Cl)ccc2[n+]1[O-] [Compound 28],1.38,0.91,0.38,−0.13,3.42,3.69,−1.491,,,,,
"Clc1ccccc1 [Compound 6, Chlorobenzene, reference compound]",,,,,,,,2.62,2.89,2.90,,
"CC(=O)Nc1ccccc1 [Compound 3, Acetanilide, reference compound]",,,,,,,,0.88,1.15,,,1.19
Cc1c(C(=O)NCC(c2ccccc2)c2ccccc2)[n+]([O-])c2cc(Cl)c(Cl)cc2[n+]1[O-] [Compound 29],1.78,1.31,0.76,0.25,3.86,4.12,−1.410,,,,,
"CC(=O)c1ccccc1 [Compound 4, Acetophenone, reference compound]",,,,,,,,1.27,1.54,,,1.52
"c1ccccc1 [Compound 5, Benzene, reference compound]",,,,,,,,1.87,2.14,,,
Cc1c(C(=O)NCc2ccc(Br)cc2)[n+]([O-])c2cc(Cl)ccc2[n+]1[O-] [Compound 20],1.22,0.84,0.42,0.02,2.83,3.09,−1.445,,,,,
Cc1c(C(=O)NCC(c2ccccc2)c2ccccc2)[n+]([O-])c2ccccc2[n+]1[O-] [Compound 26],1.06,0.62,0.14,−0.33,2.92,3.18,−1.591,,,,,
Cc1ccc2c(c1)[n+]([O-])c(C(=O)NCc1ccccc1)c(C)[n+]2[O-] [Compound 11],0.35,0.07,−0.24,−0.56,1.58,1.85,−1.658,,,,,
Cc1c(C(=O)NCCc2ccccc2)[n+]([O-])c2ccccc2[n+]1[O-] [Compound 14],0.36,0.05,−0.26,−0.58,1.61,1.88,−1.625,,,,,
Cc1c(C(=O)NCc2ccc(Br)cc2)[n+]([O-])c2ccccc2[n+]1[O-] [Compound 18],0.85,0.48,0.11,−0.24,2.30,2.57,−1.540,,,,,
Cc1ccc(CNC(=O)c2c(C)[n+]([O-])c3cc(Cl)c(Cl)cc3[n+]2[O-])cc1 [Compound 25],1.33,0.93,0.54,0.14,2.91,3.18,,,,,,
"c1ccc2ccccc2c1 [Compound 8, Naphthalene, reference compound]",,,,,,,,3.15,3.42,,,
Cc1ccc(CNC(=O)c2c(C)[n+]([O-])c3ccc(Cl)cc3[n+]2[O-])cc1 [Compound 24],0.93,0.54,0.15,−0.25,2.51,2.77,−1.489,,,,,
Cc1ccc2c(c1)[n+]([O-])c(C(=O)NCC(c1ccccc1)c1ccccc1)c(C)[n+]2[O-] [Compound 27],1.21,0.80,0.33,−0.12,3.02,3.28,−1.640,,,,,
Cc1c(C(=O)NCc2ccc(Br)cc2)[n+]([O-])c2cc(Cl)c(Cl)cc2[n+]1[O-] [Compound 21],1.60,1.15,0.65,0.19,3.51,3.78,−1.363,,,,,
Cc1c(C(=O)NCc2ccccc2)[n+]([O-])c2ccccc2[n+]1[O-] [Compound 10],0.28,−0.05,−0.34,−0.64,1.49,1.76,,,,,,
Cc1ccc(CNC(=O)c2c(C)[n+]([O-])c3ccc(C)cc3[n+]2[O-])cc1 [Compound 23],0.66,0.34,−0.01,−0.36,2.02,2.29,−1.590,,,,,
